From US20250236608A1, “EGFR INHIBITORS” (Blueprint Medicines Corporation, priority 2022, published 2025)

What was measured:
[1] = biological target: EGFR L858R (Homo sapiens (Human), UniProt P00533, L858R); assay: Biochemical EGFR inhibition assay, EGFR L858R; settings: Caliper mobility shift; 1.0 mM ATP or ATP Km; read-out: Enz EGFR_L858R IC50
[2] = biological target: pEGFR (Tyr1068) in PC-9 cells (Ex19Del) (Homo sapiens (Human), UniProt P00533, DEL746-750); assay: PC-9 pEGFR AlphaLISA assay; assay type: cell-based; settings: 4 hours incubation, p-EGFR (Tyr1068) AlphaLISA, read-out: Ext pEGFR_PC-9 Ex19Del IC50
Chain of pEGFR (Tyr1068) in PC-9 cells (Ex19Del) (P00533 other isoform, or with tags, fused parts or gaps del 746-750): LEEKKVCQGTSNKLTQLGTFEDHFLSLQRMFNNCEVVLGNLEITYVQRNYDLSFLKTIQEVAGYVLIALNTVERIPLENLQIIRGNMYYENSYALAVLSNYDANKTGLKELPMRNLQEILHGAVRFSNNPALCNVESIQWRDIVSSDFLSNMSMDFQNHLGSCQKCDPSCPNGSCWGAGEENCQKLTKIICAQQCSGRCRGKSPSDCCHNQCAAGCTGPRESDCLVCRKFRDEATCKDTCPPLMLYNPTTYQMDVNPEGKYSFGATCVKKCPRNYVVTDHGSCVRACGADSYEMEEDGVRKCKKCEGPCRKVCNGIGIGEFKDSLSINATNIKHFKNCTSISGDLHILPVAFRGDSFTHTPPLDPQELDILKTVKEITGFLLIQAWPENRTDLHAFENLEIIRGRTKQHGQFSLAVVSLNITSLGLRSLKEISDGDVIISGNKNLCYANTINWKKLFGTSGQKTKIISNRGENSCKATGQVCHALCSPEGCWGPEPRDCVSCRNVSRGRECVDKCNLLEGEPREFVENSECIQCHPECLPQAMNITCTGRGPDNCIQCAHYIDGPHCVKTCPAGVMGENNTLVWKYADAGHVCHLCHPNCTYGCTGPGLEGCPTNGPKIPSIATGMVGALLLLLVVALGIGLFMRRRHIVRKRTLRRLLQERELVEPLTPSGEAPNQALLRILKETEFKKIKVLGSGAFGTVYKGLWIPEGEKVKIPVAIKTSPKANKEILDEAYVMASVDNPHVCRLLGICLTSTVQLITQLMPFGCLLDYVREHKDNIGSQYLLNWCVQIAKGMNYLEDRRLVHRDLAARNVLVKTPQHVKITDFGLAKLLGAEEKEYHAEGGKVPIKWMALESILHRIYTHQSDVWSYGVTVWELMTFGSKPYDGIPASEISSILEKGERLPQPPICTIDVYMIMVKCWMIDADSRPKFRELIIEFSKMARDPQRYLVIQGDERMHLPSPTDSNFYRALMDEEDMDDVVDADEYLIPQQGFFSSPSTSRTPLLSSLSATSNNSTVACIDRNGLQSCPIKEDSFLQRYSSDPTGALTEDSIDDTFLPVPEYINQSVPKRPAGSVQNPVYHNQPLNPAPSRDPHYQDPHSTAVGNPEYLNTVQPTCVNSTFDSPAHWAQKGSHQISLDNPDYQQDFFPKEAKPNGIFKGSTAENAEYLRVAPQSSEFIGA
How it was run: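 Readout: AlphaLISA SureFire Ultra signal in cell lysates, with acceptor beads for 1.5-2 h and donor beads overnight at room temperature in the dark. Beforehand, unstimulated cells in 10% FBS medium received compounds (10 points, 4-fold steps) for 4 h at 37° C. IC50 came from percent inhibition curves.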

[3] = biological target: EGFR (d746-750) (Homo sapiens (Human), UniProt P00533, DEL746-750); assay: Biochemical EGFR inhibition assay, EGFR (d746-750); settings: Caliper mobility shift; 1.0 mM ATP or ATP Km; read-out: Enz EGFR_Exon19-del746-750 IC50
Chain of EGFR (d746-750) (P00533 other isoform, or with tags, fused parts or gaps del 1-694/del 746-750 limits assumed): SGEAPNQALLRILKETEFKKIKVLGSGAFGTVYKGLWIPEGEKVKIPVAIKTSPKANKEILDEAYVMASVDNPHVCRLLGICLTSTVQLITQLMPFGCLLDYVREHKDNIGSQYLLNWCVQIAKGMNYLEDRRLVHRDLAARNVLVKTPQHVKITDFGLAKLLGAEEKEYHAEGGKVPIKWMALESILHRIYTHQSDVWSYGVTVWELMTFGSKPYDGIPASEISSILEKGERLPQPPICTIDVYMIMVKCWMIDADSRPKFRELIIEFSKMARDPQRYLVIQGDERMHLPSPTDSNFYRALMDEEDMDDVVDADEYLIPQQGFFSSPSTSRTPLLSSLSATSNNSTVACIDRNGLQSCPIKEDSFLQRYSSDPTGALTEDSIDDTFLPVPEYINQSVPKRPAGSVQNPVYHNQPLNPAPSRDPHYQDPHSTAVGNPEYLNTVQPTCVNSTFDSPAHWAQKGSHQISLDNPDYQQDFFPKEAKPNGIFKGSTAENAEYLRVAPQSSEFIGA

Chain of EGFR L858R (P00533 25-1210 L858R): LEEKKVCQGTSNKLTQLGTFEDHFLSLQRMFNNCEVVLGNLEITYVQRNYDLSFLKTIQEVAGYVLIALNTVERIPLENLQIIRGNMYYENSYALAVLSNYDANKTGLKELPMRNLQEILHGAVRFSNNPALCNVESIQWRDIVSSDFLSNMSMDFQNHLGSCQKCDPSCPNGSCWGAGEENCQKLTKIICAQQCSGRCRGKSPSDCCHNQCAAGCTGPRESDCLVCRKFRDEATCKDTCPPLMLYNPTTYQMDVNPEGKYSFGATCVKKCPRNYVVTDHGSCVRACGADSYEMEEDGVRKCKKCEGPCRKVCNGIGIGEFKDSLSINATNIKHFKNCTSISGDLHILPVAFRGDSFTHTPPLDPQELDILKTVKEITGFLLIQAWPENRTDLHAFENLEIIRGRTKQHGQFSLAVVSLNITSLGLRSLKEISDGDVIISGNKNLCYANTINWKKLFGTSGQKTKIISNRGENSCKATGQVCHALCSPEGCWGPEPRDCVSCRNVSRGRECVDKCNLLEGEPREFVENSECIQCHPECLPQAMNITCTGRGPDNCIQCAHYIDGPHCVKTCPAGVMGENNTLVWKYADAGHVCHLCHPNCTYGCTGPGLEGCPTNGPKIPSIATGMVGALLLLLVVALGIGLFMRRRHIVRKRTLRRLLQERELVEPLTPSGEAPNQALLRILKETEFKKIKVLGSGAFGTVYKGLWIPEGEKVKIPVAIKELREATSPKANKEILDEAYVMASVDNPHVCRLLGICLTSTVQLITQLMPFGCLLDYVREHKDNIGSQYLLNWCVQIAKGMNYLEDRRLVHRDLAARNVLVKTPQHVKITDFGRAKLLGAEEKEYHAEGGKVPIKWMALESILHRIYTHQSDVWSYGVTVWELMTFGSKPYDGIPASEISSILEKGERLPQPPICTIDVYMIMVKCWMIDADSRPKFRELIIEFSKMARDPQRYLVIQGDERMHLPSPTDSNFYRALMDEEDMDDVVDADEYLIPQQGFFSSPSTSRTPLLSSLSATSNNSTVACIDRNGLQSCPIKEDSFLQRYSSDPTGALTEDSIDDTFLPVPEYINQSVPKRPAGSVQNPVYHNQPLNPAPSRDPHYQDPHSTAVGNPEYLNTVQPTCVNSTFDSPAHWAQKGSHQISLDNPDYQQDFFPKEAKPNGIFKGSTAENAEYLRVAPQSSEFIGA

| SMILES | IC50 [1] [nM] | IC50 [2] [nM] | IC50 [3] [nM] |
| --- | --- | --- | --- |
| COc1cc2ncnc(-c3cn(C)nc3-c3ccccc3)c2cc1[C@H](C)O (single isomer, unassigned) [Example 116, (S)-1-(7-methoxy-4-(1-methyl-3-phenyl-1H-pyrazol-4-yl)quinazolin-6-yl)ethan-1-ol or (R)-1-(7-methoxy-4-(1-methyl-3-phenyl-1H-pyrazol-4-yl)quinazolin-6-yl)ethan-1-ol] | 1.2 | 11.5 | 1.1 |
| COc1cc2ncnc(-c3cn(CC(F)F)nc3-c3ccccc3)c2nc1NC(=O)[C@@]12C[C@@H]1CN(C)C2 (single isomer, unassigned) [Example 397, (1R,5R)—N-(4-(1-(2,2-difluoroethyl)-3-phenyl-1H-pyrazol-4-yl)-7-methoxypyrido[3,2-d]pyrimidin-6-yl)-3-methyl-3-azabicyclo[3.1.0]hexane-1-carboxamide or (1S,5S)—N-(4-(1-(2,2-difluoroethyl)-3-phenyl-1H-pyrazol-4-yl)-7-methoxypyrido[3,2-d]pyrimidin-6-yl)-3-methyl-3-azabicyclo[3.1.0]hexane-1-carboxamide] | 2.3 | 1.6 | 1 |
| CC(C)Oc1cc2ncnc(-c3cn(C)nc3-c3ccccc3)c2cc1OC(=O)N1CCOC[C@H]1C [Example 71, 7-isopropoxy-4-(1-methyl-3-phenyl-1H-pyrazol-4-yl)quinazolin-6-yl (R)-3-methylmorpholine-4-carboxylate] | 4.5 | 6.8 | 2.5 |
| COc1cc2ncnc(-c3cn(CCO)nc3-c3ccccc3)c2cc1NC(=O)c1ccccc1F [Example 264, 2-fluoro-N-(4-(1-(2-hydroxyethyl)-3-phenyl-1H-pyrazol-4-yl)-7-methoxyquinazolin-6-yl)benzamide] | 0.6 | 0.3 | 0.4 |
| COCc1cc2c(-c3cn(C)nc3-c3ccccc3)ncnc2cc1OC [Example 120, 7-methoxy-6-(methoxymethyl)-4-(1-methyl-3-phenyl-1H-pyrazol-4-yl)quinazoline] | 2.9 | 7.3 | 0.8 |
| CCOc1cc2ncnc(-c3cn(C)nc3-c3ccccc3)c2cc1N1CC2CC(C1)O2 [Example 167, 3-(7-ethoxy-4-(1-methyl-3-phenyl-1H-pyrazol-4-yl)quinazolin-6-yl)-6-oxa-3-azabicyclo[3.1.1]heptane] | 1.9 | 1.7 | 1.1 |
| COc1cc2ncnc(-c3cn(C)nc3-c3ccccc3)c2cc1NC(=O)C(C)F (stereo not drawn) [Example 221, 2-fluoro-N-(7-methoxy-4-(1-methyl-3-phenyl-1H-pyrazol-4-yl)quinazolin-6-yl)propanamide] | 1.8 | 2.3 | 1 |
| CCn1ncc(-c2ncnc3cc(-c4cnn(C)c4)ccc23)c1-c1ccccc1 [Example 495] | 1.2 | 15.3 | 2.3 |
| COc1cc2ncnc(-c3cn(C)nc3-c3ccccc3)c2cc1OC(=O)N1CCN(C)C[C@@H]1C (stereo in doubt) [Example 59, 7-methoxy-4-(1-methyl-3-phenyl-1H-pyrazol-4-yl)quinazolin-6-yl(S)-2,4-dimethylpiperazine-1-carboxylate or 7-methoxy-4-(1-methyl-3-phenyl-1H-pyrazol-4-yl)quinazolin-6-yl (R)-2,4-dimethylpiperazine-1-carboxylate] | 3.3 | 4.2 | 2 |
| Cn1cc(-c2ncnc3cc(OC4CC4)c(NC(=O)C4(C(F)(F)F)CC4)nc23)c(-c2ccccc2)n1 [Example 463, N-[7-cyclopropoxy-4-(1-methyl-3-phenyl-1H-pyrazol-4-yl)pyrido[3,2-d]pyrimidin-6-yl]-1-(trifluoromethyl)cyclopropane-1-carboxamide] | 3.9 | 1.7 | 0.8 |
| COc1cc2ncnc(-c3cn(C)nc3-c3ccccc3)c2nc1NC(=O)[C@@]1(C)CCCO1 [Example 363, (R)-N-(7-methoxy-4-(1-methyl-3-phenyl-1H-pyrazol-4-yl)pyrido[3,2-d]pyrimidin-6-yl)-2-methyltetrahydrofuran-2-carboxamide] | 5.4 | 3.5 | 1.7 |
| CCn1cc(-c2ncnc3cc(OC)c(NC(=O)[C@@]45COC[C@@H]4C5)cc23)c(-c2ccccc2)n1 [Example 288, (1R,5R)—N-(4-(1-ethyl-3-phenyl-1H-pyrazol-4-yl)-7-methoxyquinazolin-6-yl)-3-oxabicyclo[3.1.0]hexane-1-carboxamide] | 1.9 | 2 | 1.2 |
| COc1cc2ncnc(-c3cn(C)nc3-c3ccccc3)c2cc1OC(=O)N1CCO[C@H](C)[C@@H]1C [Example 94, 7-methoxy-4-(1-methyl-3-phenyl-1H-pyrazol-4-yl)quinazolin-6-yl (2R,3S)-2,3-dimethylmorpholine-4-carboxylate] | 6.4 | 11.3 | 3.2 |
| COc1cc2ncnc(-c3cn(C)nc3-c3ccccc3)c2cc1NC(=O)c1cccc(F)c1C [Example 200, 3-fluoro-N-(7-methoxy-4-(1-methyl-3-phenyl-1H-pyrazol-4-yl)quinazolin-6-yl)-2-methylbenzamide] | 5.7 | 8.4 | 2.4 |
| CCOc1cc2ncnc(-c3cn(C)nc3-c3ccccc3)c2cc1CO [Example 99, (7-ethoxy-4-(1-methyl-3-phenyl-1H-pyrazol-4-yl)quinazolin-6-yl)methanol] | 2 | 4.2 | 1.1 |

Other lines, results leading:

| IC50 [1] [nM] | IC50 [2] [nM] | IC50 [3] [nM] | SMILES |
| --- | --- | --- | --- |
| 1 | 0.9 | 0.5 | COc1cc2ncnc(-c3cn(C)nc3-c3ccccc3)c2nc1-c1ccc2c(c1)CN(C)C2=O [Example 153, 5-(7-methoxy-4-(1-methyl-3-phenyl-1H-pyrazol-4-yl)pyrido[3,2-d]pyrimidin-6-yl)-2-methylisoindolin-1-one] |
| 4 | 6.2 | 1.9 | COc1cc2ncnc(-c3cn(C)nc3-c3ccccc3)c2cc1O[C@H]1CCOC1 [Example 13, (S)-7-methoxy-4-(1-methyl-3-phenyl-1H-pyrazol-4-yl)-6-((tetrahydrofuran-3-yl)oxy)quinazoline] |
| 141 | 2 | 1.6 | CCOc1cc2ncnc(-c3cn(C)nc3-c3ccccc3F)c2nc1NC(=O)[C@@]12C[C@@H]1CN(C)C2 (single isomer, unassigned) [Example 400, (1S,5S)—N-(7-ethoxy-4-(3-(2-fluorophenyl)-1-methyl-1H-pyrazol-4-yl)pyrido[3,2-d]pyrimidin-6-yl)-3-methyl-3-azabicyclo[3.1.0]hexane-1-carboxamide or (1R,5R)—N-(7-ethoxy-4-(3-(2-fluorophenyl)-1-methyl-1H-pyrazol-4-yl)pyrido[3,2-d]pyrimidin-6-yl)-3-methyl-3-azabicyclo[3.1.0]hexane-1-carboxamide] |
| 1.4 | 1.3 | 0.9 | COc1cc2ncnc(-c3cn(C)nc3-c3ccccc3)c2cc1NC(=O)c1cccc(C)n1 [Example 329, N-(7-methoxy-4-(1-methyl-3-phenyl-1H-pyrazol-4-yl)quinazolin-6-yl)-6-methylpicolinamide] |
| 1.4 | 1.1 | 0.7 | CCOc1cc2ncnc(-c3cn(C)nc3-c3ccccc3)c2cc1NC(=O)c1cccnc1 [Example 296, N-(7-ethoxy-4-(1-methyl-3-phenyl-1H-pyrazol-4-yl)quinazolin-6-yl)nicotinamide] |
| 4.6 | 8.1 | 2.5 | COc1cc2ncnc(-c3cn(C)nc3-c3ccccc3)c2cc1N1CC2(COC2)C1 [Example 161, 6-(7-methoxy-4-(1-methyl-3-phenyl-1H-pyrazol-4-yl)quinazolin-6-yl)-2-oxa-6-azaspiro[3.3]heptane] |
| 1.3 | 1 | 0.8 | COc1cc2ncnc(-c3cn(CC(F)F)nc3-c3ccccc3)c2cc1NC(=O)c1cnsc1 [Example 271, N-(4-(1-(2,2-difluoroethyl)-3-phenyl-1H-pyrazol-4-yl)-7-methoxyquinazolin-6-yl)isothiazole-4-carboxamide] |
| 2.1 | 2.5 | 0.8 | COc1cc2ncnc(-c3cn(C)nc3-c3ccccc3F)c2cc1NC(=O)[C@@]12C[C@@H]1CN(C)C2 (single isomer, unassigned) [Example 254, (1S,5S)—N-(4-(3-(2-fluorophenyl)-1-methyl-1H-pyrazol-4-yl)-7-methoxyquinazolin-6-yl)-3-methyl-3-azabicyclo[3.1.0]hexane-1-carboxamide or (1R,5R)—N-(4-(3-(2-fluorophenyl)-1-methyl-1H-pyrazol-4-yl)-7-methoxyquinazolin-6-yl)-3-methyl-3-azabicyclo[3.1.0]hexane-1-carboxamide] |
| 2.9 | 3 | 1.6 | CCn1cc(-c2ncnc3cc(OC)c(NC(=O)[C@]45COC[C@H]4C5)cc23)c(-c2ccc(F)cc2)n1 [Example 335, (1S,5S)—N-(4-(1-ethyl-3-(4-fluorophenyl)-1H-pyrazol-4-yl)-7-methoxyquinazolin-6-yl)-3-oxabicyclo[3.1.0]hexane-1-carboxamide] |
| 1.3 | 3 | 0.9 | CCOc1cc2ncnc(-c3cn(CC)nc3-c3ccccc3)c2cc1CO [Example 124, (7-ethoxy-4-(1-ethyl-3-phenyl-1H-pyrazol-4-yl)quinazolin-6-yl)methanol] |
